Source: publication PMC4490784, “Compensatory induction of MYC expression by sustained CDK9 inhibition via a BRD4-dependent mechanism” (eLife, 2015)

How the values were obtained:
[1] = molecular target: T1, CDK9-CycT1 (Homo sapiens, UniProt P50750); assay: AlphaScreen-based kinase assay; assay type: biochemical; parameters: purchased Invitrogen
Method: (§1) The inhibitory activity of i-CDK9 for CDK1-CycB (Upstate/Millipore), CDK2-CycA (Invitrogen), CDK4-CycD1 (Novartis), CDK7-CycH-MAT1 (Invitrogen), and CDK9-CycT1 (Invitrogen) was assessed in the AlphaScreen (PerkinElmer, Inc)-based kinase assay developed at Novartis. Briefly, each CDK–cyclin pair was pre-incubated with i-CDK9 for 15 min, followed by addition of kinase substrates (ELK for CDK1 and CDK2, RB for CDK4, and CDK7tide for CDK7 and CDK9). The mixture was incubated at room temperature for additional 4–5 hr. The reaction was stopped and read on Envision (PerkinElmer, Inc). Selectivity against a large panel of over 400 kinases was evaluated using the KINOMEscan platform (DiscoveRx, CA) employing a proprietary active site-directed competition binding assay ([Fabian et al., 2005]). The assay was conducted at two different concentrations of i-CDK9 (1 and 10 µM) by DiscoveRx.

[2] = molecular target: JAK1(JH2domain-pseudokinase) (Homo sapiens, UniProt P23458); assay: KINOMEscan binding assay; parameters: JAK1(JH2domain-pseudokinase); purchased DiscoveRx KINOMEscan
JAK1(JH2domain-pseudokinase), sequence (P23458 561-860 limits assumed): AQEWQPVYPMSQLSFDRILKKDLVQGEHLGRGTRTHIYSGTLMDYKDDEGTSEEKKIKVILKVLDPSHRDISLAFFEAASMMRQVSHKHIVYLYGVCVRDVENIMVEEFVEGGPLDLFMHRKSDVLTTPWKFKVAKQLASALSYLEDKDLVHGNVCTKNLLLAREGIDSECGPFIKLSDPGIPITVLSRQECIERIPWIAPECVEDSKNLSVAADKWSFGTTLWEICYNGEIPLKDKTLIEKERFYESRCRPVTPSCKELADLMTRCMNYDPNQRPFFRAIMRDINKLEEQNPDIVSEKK
Method: (§2) As there are no commercial or in-house kinase assays available for CDK3, CDK5, CDK11 and CDK13, the inhibitory abilities of i-CDK9 toward these CDKs were thus evaluated in the DiscoveRx KINOMEscan assay, which is based on a proprietary active site-directed competition-binding platform ([Fabian et al., 2005]).
as §1

[3] = molecular target: T2, PKNB(M.tuberculosis) (Mycobacterium tuberculosis, UniProt P9WI81); assay: KINOMEscan binding assay; conditions: 1 µM i-CDK9; read-out: % Retention on Solid Support
T2 construct: purchased DiscoveRx KINOMEscan

[4] = molecular target: CDK4-CycD1 (Homo sapiens, UniProt P11802); assay: AlphaScreen-based kinase assay; assay type: biochemical
Method: as §1

[5] = molecular target: T3, CDK2-CycA (Homo sapiens, UniProt P24941); assay: AlphaScreen-based kinase assay; assay type: biochemical
T3 construct: purchased Invitrogen
Method: as §1

[6] = molecular target: T4, CDK7-CycH-MAT1 (Homo sapiens, UniProt P50613); assay: AlphaScreen-based kinase assay; assay type: biochemical
T4 construct: purchased Invitrogen
T4 sequence (P50613 whole entry): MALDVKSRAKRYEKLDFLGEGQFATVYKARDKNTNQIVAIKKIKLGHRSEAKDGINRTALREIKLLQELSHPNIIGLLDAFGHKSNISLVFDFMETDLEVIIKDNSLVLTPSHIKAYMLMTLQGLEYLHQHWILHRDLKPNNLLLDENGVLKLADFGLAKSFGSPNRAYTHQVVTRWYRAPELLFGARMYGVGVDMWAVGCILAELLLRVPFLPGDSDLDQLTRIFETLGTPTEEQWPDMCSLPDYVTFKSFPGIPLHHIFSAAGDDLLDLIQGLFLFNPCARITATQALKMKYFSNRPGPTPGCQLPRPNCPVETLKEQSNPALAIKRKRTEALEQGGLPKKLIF
T4 sequence (P51946 whole entry partner): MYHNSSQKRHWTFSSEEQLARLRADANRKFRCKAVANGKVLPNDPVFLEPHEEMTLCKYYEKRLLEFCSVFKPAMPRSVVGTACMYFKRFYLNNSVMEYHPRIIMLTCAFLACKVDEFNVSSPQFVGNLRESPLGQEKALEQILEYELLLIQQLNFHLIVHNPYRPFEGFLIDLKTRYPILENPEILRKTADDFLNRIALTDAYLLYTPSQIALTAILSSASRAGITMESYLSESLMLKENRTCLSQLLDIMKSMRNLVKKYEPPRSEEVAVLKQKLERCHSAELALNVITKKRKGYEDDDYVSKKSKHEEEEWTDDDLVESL
T4 sequence (P51948 whole entry partner): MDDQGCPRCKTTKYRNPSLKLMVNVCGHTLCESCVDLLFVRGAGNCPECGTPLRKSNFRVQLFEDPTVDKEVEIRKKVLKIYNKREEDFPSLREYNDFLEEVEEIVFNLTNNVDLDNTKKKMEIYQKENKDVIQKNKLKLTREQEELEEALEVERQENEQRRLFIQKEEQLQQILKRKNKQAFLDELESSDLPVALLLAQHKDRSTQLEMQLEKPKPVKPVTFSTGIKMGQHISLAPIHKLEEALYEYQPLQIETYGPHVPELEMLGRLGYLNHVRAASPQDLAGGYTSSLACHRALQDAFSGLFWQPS
Method: as §1

[7] = molecular target: T5, CDK1-CycB (Homo sapiens, UniProt P06493); assay: AlphaScreen-based kinase assay; assay type: biochemical
T5 construct: purchased Upstate/Millipore
Method: as §1

[8] = molecular target: T6, recombinant CDK12-CycK (Homo sapiens, UniProt Q9NYV4); assay: In vitro kinase reaction with baculovirus-produced recombinant kinase (SignalChem); assay type: biochemical
T6 construct: purchased SignalChem; host or cells: baculovirus-produced
T6 sequence (Q9NYV4 whole entry): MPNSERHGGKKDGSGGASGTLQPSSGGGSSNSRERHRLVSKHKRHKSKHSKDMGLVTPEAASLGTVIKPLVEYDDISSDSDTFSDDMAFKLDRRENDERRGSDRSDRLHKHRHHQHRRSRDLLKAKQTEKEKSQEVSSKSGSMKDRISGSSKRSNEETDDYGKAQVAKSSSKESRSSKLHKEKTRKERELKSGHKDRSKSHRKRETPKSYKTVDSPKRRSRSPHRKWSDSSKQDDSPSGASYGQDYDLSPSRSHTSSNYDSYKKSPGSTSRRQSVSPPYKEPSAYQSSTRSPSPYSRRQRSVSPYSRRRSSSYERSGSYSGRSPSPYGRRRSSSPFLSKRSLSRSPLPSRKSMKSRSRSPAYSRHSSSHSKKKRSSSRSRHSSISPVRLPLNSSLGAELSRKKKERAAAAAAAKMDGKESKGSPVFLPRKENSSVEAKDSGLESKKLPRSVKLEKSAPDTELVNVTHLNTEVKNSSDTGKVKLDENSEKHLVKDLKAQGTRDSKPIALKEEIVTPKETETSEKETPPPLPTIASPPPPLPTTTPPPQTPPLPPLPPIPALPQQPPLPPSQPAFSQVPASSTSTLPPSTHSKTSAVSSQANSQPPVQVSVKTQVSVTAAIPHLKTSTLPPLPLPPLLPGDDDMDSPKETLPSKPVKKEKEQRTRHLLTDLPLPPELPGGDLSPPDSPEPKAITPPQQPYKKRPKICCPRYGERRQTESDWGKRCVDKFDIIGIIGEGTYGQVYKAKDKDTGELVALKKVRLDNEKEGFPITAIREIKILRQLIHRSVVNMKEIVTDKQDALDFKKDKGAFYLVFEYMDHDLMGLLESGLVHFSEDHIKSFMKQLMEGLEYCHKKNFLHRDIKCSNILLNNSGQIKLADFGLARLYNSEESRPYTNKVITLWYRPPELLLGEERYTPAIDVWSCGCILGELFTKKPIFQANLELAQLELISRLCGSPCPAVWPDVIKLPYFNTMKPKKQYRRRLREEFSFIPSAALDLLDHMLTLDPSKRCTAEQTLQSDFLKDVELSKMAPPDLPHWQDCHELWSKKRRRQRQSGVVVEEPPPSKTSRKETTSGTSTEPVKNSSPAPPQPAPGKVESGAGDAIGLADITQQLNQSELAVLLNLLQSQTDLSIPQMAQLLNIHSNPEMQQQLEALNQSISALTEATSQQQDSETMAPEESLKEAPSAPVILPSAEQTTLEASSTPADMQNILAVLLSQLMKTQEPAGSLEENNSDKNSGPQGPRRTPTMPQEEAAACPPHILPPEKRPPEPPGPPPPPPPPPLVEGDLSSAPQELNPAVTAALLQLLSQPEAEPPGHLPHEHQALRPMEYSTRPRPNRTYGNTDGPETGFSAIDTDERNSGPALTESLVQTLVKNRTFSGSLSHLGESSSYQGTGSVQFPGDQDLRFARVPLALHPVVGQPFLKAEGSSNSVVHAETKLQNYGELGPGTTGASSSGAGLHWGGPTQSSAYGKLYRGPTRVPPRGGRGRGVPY
T6 sequence (O75909 whole entry partner): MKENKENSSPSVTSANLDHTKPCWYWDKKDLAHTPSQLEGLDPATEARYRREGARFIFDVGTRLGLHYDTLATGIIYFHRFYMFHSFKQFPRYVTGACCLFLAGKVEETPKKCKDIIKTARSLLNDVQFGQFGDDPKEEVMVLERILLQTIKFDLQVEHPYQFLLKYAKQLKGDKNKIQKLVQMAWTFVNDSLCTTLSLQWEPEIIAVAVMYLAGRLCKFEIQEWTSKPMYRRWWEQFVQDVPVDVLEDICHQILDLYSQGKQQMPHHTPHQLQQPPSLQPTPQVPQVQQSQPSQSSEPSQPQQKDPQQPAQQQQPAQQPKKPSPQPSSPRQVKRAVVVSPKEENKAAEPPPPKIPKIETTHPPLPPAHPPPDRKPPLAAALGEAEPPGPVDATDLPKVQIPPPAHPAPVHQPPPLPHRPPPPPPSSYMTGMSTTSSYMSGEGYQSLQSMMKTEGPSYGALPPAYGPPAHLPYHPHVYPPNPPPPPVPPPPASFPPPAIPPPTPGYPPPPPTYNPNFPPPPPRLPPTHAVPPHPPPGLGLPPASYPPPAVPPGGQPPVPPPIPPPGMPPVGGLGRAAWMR

[9] = molecular target: T1, CDK9-CycT1; assay: In vitro kinase assay with CDK7tide, effect of BRD4 on response to i-CDK9; assay type: biochemical
Method: The reactions were stopped by adding 60 mM EDTA plus 0.01% Tween 20. After the addition of AlphaScreen beads (PerkinElmer) and detection antibody (Cell Signaling Technology, #4735) followed by overnight incubation at room temperature, the plates were read on an Envision 2101 (PerkinElmer).

[10] = molecular target: CDK9 (Homo sapiens, UniProt P50750); assay: KINOMEscan binding assay; parameters: purchased DiscoveRx KINOMEscan; conditions: read-out: % Retention on Solid Support
CDK9, sequence (P50750 whole entry): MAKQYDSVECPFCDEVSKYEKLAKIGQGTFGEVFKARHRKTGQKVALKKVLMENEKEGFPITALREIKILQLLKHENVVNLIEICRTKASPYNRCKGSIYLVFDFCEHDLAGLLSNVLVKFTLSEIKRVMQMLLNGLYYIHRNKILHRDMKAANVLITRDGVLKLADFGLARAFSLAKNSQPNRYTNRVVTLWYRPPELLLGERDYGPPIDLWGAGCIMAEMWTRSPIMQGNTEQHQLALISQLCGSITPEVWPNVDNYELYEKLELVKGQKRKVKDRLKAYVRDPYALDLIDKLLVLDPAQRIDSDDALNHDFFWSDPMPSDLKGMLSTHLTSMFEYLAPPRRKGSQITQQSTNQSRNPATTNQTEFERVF
Method: as §2, §1

T1 sequence (P50750 whole entry): as above
T1 sequence (O60563 whole entry partner): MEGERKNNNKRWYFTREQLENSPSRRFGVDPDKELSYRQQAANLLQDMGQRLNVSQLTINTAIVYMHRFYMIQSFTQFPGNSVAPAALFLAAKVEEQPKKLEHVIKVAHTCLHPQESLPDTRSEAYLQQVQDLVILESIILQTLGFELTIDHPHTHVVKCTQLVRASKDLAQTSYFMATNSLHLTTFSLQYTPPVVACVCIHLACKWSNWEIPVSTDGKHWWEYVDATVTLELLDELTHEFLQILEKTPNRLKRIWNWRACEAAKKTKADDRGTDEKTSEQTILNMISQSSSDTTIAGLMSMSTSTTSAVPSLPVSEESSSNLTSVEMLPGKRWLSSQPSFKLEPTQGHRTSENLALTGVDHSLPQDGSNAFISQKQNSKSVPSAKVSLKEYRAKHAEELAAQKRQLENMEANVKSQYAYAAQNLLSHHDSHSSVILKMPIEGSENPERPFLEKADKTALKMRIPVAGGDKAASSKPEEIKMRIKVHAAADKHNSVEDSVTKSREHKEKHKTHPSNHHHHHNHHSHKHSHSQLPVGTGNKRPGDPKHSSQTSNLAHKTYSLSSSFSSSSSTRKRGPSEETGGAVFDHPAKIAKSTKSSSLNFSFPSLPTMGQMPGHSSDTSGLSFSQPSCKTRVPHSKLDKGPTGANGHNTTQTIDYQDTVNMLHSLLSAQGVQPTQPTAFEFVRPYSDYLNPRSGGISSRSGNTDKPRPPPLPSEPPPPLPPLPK

Structure (SMILES): N[C@H]1CC[C@H](Nc2cc(-c3cccc(NCc4cccc(F)c4)n3)c(Cl)cn2)CC1 [i-CDK9, N2′-(trans-4-aminocyclohexyl)-5′-chloro-N6-(3-fluorobenzyl)-2,4′-bipyridine-2′,6-diamine]
- IC50 [1]: ≤ 0.4 nM
- fold lower activity toward CDK1-CycB, CDK2-CycA, CDK4-CycD1, CDK7-CycH-MAT1 and CDK8-CycC compared to CDK9-CycT1 ([1]; selectivity): at least 600 fold
- % Retention on Solid Support ([2]; 1 µM i-CDK9): 85%
- % Retention on Solid Support ([2]; 10 µM i-CDK9): 81%
- remaining binding at 1 µM [3]: 100%
- IC50 [4]: 1800 nM
- IC50 [5]: 240 nM
- IC50 [6]: 2000 nM
- IC50 [7]: 1700 nM
- i-CDK9 concentration at which the kinase was significantly inhibited [8]: 640 to 1200 nM
- IC50 ([9]; CDK9/CycT1 + WT BRD4): 14.7 ± 2.1 nM
- IC50 ([9]; CDK9/CycT1 + ΔPID BRD4): 7.2 ± 0.6 nM
- IC50 ([9]; CDK9/CycT1, absence of BRD4): 4.4 ± 0.7 nM
- remaining binding at 1 µM ([10]; 1 µM i-CDK9): 5.1%
- remaining binding at 10 µM ([10]; 10 µM i-CDK9): 0%
